Laboratory results: PubChem BioAssay AID206 (DTP/NCI, 2004)
Where “and” joins values, the source holds several entries; their conditions need not be identical. Identical values can stand only once. Results filed as inconclusive are left out.

Test system: nude mice, HT29 intrarenal xenograft, tumor weight T/C
Test: NCI In Vivo Anticancer Drug Screen. Data for tumor model HT29;CX-1 Human Adenocarcinoma (MER+) (intrarenal inoculation) in NU/NU Swiss (nude) mice
Settings: endpoint: mean tumor weight change, higher = larger tumour
Procedure: The antitumor activity of compounds was measured in mice bearing transplantable tumors. Survival or tumor size were measured and the results are expressed as the measurement made in the treated group (T) divided by the measurement made in the vehicle treated control group (C). The tumor model used in this assay is HT29;CX-1 Human Adenocarcinoma (MER+) (intrarenal inoculation) in NU/NU Swiss (nude) mice

[1] = dose: 12.5 mg/kg/injection, schedule: Q01DX010 (sc), vehicle: saline
[2] = dose: 25.0 mg/kg/injection, schedule: Q01DX010 (sc), vehicle: saline
[3] = dose: 50.0 mg/kg/injection, schedule: Q04DX004 (sc), vehicle: Klucel (hydroxypropylcellulose) (HPC)
[4] = dose: 200.0 mg/kg/injection, schedule: Q04DX004 (sc), vehicle: Klucel (hydroxypropylcellulose) (HPC)
[5] = dose: 225.0 mg/kg/injection, schedule: Q04DX004 (sc), vehicle: saline with Tween-80
[6] = dose: 450.0 mg/kg/injection, schedule: Q04DX004 (sc), vehicle: saline with Tween-80
[7] = dose: 50.0 mg/kg/injection, schedule: Q01DX010 (sc), vehicle: saline
[8] = dose: 100.0 mg/kg/injection, schedule: Q01DX010 (sc), vehicle: saline
[9] = dose: 200.0 mg/kg/injection, schedule: Q01DX010 (sc), vehicle: saline
[10] = dose: 200.0 mg/kg/injection, schedule: Q01DX010 (sc), vehicle: saline with Tween-80
[11] = dose: 400.0 mg/kg/injection, schedule: Q01DX010 (sc), vehicle: saline with Tween-80
[12] = dose: 800.0 mg/kg/injection, schedule: Q01DX010 (sc), vehicle: saline with Tween-80
[13] = dose: 100.0 mg/kg/injection, schedule: Q04DX004 (sc), vehicle: Klucel (hydroxypropylcellulose) (HPC)
[14] = dose: 300.0 mg/kg/injection, schedule: Q04DX004 (sc), vehicle: saline with Tween-80
[15] = dose: 600.0 mg/kg/injection, schedule: Q04DX004 (sc), vehicle: saline with Tween-80
[16] = dose: 150.0 mg/kg/injection, schedule: Q04DX004 (sc), vehicle: saline
[17] = dose: 300.0 mg/kg/injection, schedule: Q04DX004 (sc), vehicle: saline
[18] = dose: 600.0 mg/kg/injection, schedule: Q04DX004 (sc), vehicle: saline

`CC[N+](CC)(CC)CC` was tested, and the T/C (dose: 3.0 mg/kg/injection, schedule: Q01DX010 (sc), vehicle: saline with Tween-80) was 68 % of control and the T/C (dose: 6.0 mg/kg/injection, schedule: Q01DX010 (sc), vehicle: saline with Tween-80) was 104 % of control.

`CCN(CC)CCOC(=O)Cc1cccc2c(=O)cc(-c3ccccc3)oc12` was tested, and the T/C (dose: 50.0 mg/kg/injection, schedule: Q04DX004 (sc), vehicle: saline with Tween-80) was 70 % of control, the T/C (dose: 100.0 mg/kg/injection, schedule: Q04DX004 (sc), vehicle: saline with Tween-80) was 104 % of control and the T/C (dose: 200.0 mg/kg/injection, schedule: Q04DX004 (sc), vehicle: saline with Tween-80) was 102 % of control.

For `CC1(C)N=C(N)N=C(N)N1c1ccc(F)c(C(F)(F)F)c1`, the T/C (dose: 3.12 mg/kg/injection, schedule: Q01DX010 (sc), vehicle: saline) was 103 % of control, the T/C (dose: 6.25 mg/kg/injection, schedule: Q01DX010 (sc), vehicle: saline) was 84 % of control and the T/C [1] was 49 % of control. The T/C [2] was 124 % of control.

For `O=C(Nc1ccc(N=C=S)cc1Cl)c1cc(Cl)cc(Cl)c1O`, the T/C (dose: 25.0 mg/kg/injection, schedule: Q04DX004 (sc), vehicle: Klucel (hydroxypropylcellulose) (HPC)) was 123 % of control, the T/C [3] was 102 % of control and the T/C [4] was 56 % of control.

For `CCCCCCCCCCCCCCCCCCCCCC(=O)Nc1ccn(C2OC(CO)C(O)C2O)c(=O)n1` (stereo unspecified), the T/C [5] was 65 % of control, the T/C [6] was 88 % of control and the T/C (dose: 900.0 mg/kg/injection, schedule: Q04DX004 (sc), vehicle: saline with Tween-80) was 64 % of control. The T/C (dose: 1800.0 mg/kg/injection, schedule: Q04DX004 (sc), vehicle: saline with Tween-80) was 72 % of control.

`N=C(N)Sc1ccccn1` was tested, and the T/C [7] was 89 % of control, the T/C [8] was 100 % of control and the T/C [9] was 41 % of control. For the same molecule, the T/C (dose: 400.0 mg/kg/injection, schedule: Q01DX010 (sc), vehicle: saline) was 74 % of control.

In the case of `COC1=C(OC)C(=O)C(C/C=C(\C)CC/C=C(\C)CC/C=C(\C)CC/C=C(\C)CC/C=C(\C)CC/C=C(\C)CC/C=C(\C)CC/C=C(\C)CC/C=C(\C)CCC=C(C)C)=C(C)C1=O`, the T/C (dose: 100.0 mg/kg/injection, schedule: Q01DX010 (sc), vehicle: saline with Tween-80) is reported as 113 % of control, the T/C [10] is reported as 98 % of control and the T/C [11] is reported as 105 % of control. The T/C [12] was 46 % of control.

In the case of `CC(=O)Nc1ccc(S(=O)(=O)CO)cc1`, the T/C [5] is reported as 73 % of control and the T/C [6] is reported as 57 % of control.

`OCCCN1CCCCC1CO` (stereo unspecified) was tested, and the T/C (dose: 225.0 mg/kg/injection, schedule: Q04DX004 (sc), vehicle: saline) was 106 % of control, the T/C (dose: 450.0 mg/kg/injection, schedule: Q04DX004 (sc), vehicle: saline) was 89 % of control and the T/C (dose: 900.0 mg/kg/injection, schedule: Q04DX004 (sc), vehicle: saline) was 92 % of control.

In the case of `CCOC(=O)CNC(=O)CCCCSc1ncnc2nc[nH]c12`, the T/C [5] is reported as 162 % of control and the T/C [6] is reported as 103 % of control.

With `COc1cccc2c1C(=O)c1c(O)c3c(c(O)c1C2=O)C[C@@](O)(C(C)=O)C[C@@H]3OC1CC(N)C(O)C(C)O1` (stereo partly specified) the T/C (dose: 1.0 mg/kg/injection, schedule: Q01DX010 (sc), vehicle: saline) was 159 % of control.

For `CCc1c(CC(=O)O)c2cc(C)ccc2n1Cc1ccc(Cl)cc1`, the T/C [13] was 77 % of control, the T/C [4] was 74 % of control and the T/C (dose: 400.0 mg/kg/injection, schedule: Q04DX004 (sc), vehicle: Klucel (hydroxypropylcellulose) (HPC)) was 86 % of control. The T/C (dose: 800.0 mg/kg/injection, schedule: Q04DX004 (sc), vehicle: Klucel (hydroxypropylcellulose) (HPC)) was 97 % of control.

`CN(C)C1C(=O)C(C(=O)NP(=O)(NCCCO)N(CCCl)CCCl)=C(O)C2(O)C(=O)C3=C(O)c4c(O)cccc4C(C)(O)C3CC12` (stereo unspecified) was tested, and the T/C (dose: 75.0 mg/kg/injection, schedule: Q04DX004 (sc), vehicle: saline with Tween-80) was 89 % of control, the T/C [14] was 7 % of control and 32 % of control and the T/C [15] was -99 % of control.

In the case of `COc1ccc(C(=O)/C(Br)=C/C(=O)O)cc1`, the T/C [1] is reported as 73 % of control, the T/C [2] is reported as 122 % of control and the T/C [7] is reported as 56 % of control.

In the case of `[Cl][Sn]([c]1ccccc1)[c]1ccccc1`, the T/C (dose: 75.0 mg/kg/injection, schedule: Q04DX004 (sc), vehicle: saline) is reported as 59 % of control, the T/C [16] is reported as 67 % of control and the T/C [17] is reported as 63 % of control. The T/C [18] was 62 % of control.

`O=C1c2c(O)ccc(O)c2C(=O)c2c(NCCNCCO)ccc(NCCNCCO)c21` was tested, and the T/C (dose: 0.13 mg/kg/injection, schedule: Q01DX010 (sc), vehicle: acid diluted with saline) was 89 % of control, the T/C (dose: 0.25 mg/kg/injection, schedule: Q01DX010 (sc), vehicle: acid diluted with saline) was 75 % of control and the T/C (dose: 2.5 mg/kg/injection, schedule: Q04DX004 (sc), vehicle: water) was 73 % of control. For the same molecule, the T/C (dose: 5.0 mg/kg/injection, schedule: Q04DX004 (sc), vehicle: water) was 104 % of control and the T/C (dose: 10.0 mg/kg/injection, schedule: Q04DX004 (sc), vehicle: water) was 76 % of control.

For `O=C(O)/C=C/C(=O)Nc1ccc(Cl)c(Cl)c1`, the T/C [3] was 151 % of control, the T/C [13] was 102 % of control and the T/C [4] was 91 % of control.

With `CC(=O)OCC1OC(n2cc(CBr)nn2)C(OC(C)=O)C(OC(C)=O)C1OC(C)=O` (stereo unspecified) the T/C [10] was 79 % of control, the T/C [11] was 97 % of control and the T/C [12] was 70 % of control.

For `CC1=NN(c2cccc(S(=O)(=O)O)c2)C(=O)C1N=Nc1cc(Cl)cc(S(=O)(=O)O)c1O.CC1=NN(c2cccc(S(=O)(=O)O)c2)C(=O)C1N=Nc1cc(Cl)cc(S(=O)(=O)O)c1O.[Cr]` (stereo unspecified), the T/C [16] was 94 % of control, the T/C [17] was 121 % of control and the T/C [18] was 61 % of control.

With `CCCCCC[C@H]([C@H](C)O)n1cnc2c(N)ncnc21` the T/C [7] was 26 % of control, the T/C [8] was 61 % of control and the T/C [9] was 56 % of control.

With `COc1cccc2c1C(=O)c1c(O)c3c(c(O)c1C2=O)C[C@H](O)C[C@@H]3OC1CC(N)C(O)C(C)O1` (stereo partly specified) the T/C [1] was 114 % of control, the T/C [2] was 41 % of control and the T/C [7] was 87 % of control.

With `C=C/C(C)=C/[C@H](C)C(=O)C[C@H](O)CC1CC(=O)NC(=O)C1` the T/C (dose: 150.0 mg/kg/injection, schedule: Q04DX004 (sc), vehicle: saline with Tween-80) was 91 % of control, the T/C [14] was 100 % of control and the T/C [15] was 67 % of control. The T/C (dose: 1200.0 mg/kg/injection, schedule: Q04DX004 (sc), vehicle: saline with Tween-80) was 63 % of control.

With `Cn1cc(C2NC(=O)c3ccccc3N2)c2ccccc21` (stereo unspecified) the T/C (dose: 300.0 mg/kg/injection, schedule: Q04DX004 (sc), vehicle: Klucel (hydroxypropylcellulose) (HPC)) was 97 % of control, the T/C (dose: 600.0 mg/kg/injection, schedule: Q04DX004 (sc), vehicle: Klucel (hydroxypropylcellulose) (HPC)) was 116 % of control and the T/C (dose: 1200.0 mg/kg/injection, schedule: Q04DX004 (sc), vehicle: Klucel (hydroxypropylcellulose) (HPC)) was 60 % of control. The T/C (dose: 2400.0 mg/kg/injection, schedule: Q04DX004 (sc), vehicle: Klucel (hydroxypropylcellulose) (HPC)) was 94 % of control.

In the case of `Nc1nc([Se])c2ncn(C3OC(CO)C(O)C3O)c2n1` (stereo unspecified), the T/C (dose: 2.0 mg/kg/injection, schedule: Q01DX010 (sc), vehicle: saline) is reported as 98 % of control, the T/C (dose: 8.0 mg/kg/injection, schedule: Q01DX010 (sc), vehicle: saline) is reported as 242 % of control and the T/C (dose: 16.0 mg/kg/injection, schedule: Q01DX010 (sc), vehicle: saline) is reported as 202 % of control.

In the case of `Cc1cc(NCCN(C(C)C)C(C)C)nc(/N=C(\N)Nc2ccc(Cl)c(C(F)(F)F)c2)n1`, the T/C (dose: 20.0 mg/kg/injection, schedule: Q04DX004 (sc), vehicle: Klucel (hydroxypropylcellulose) (HPC)) is reported as 62 % of control, the T/C (dose: 40.0 mg/kg/injection, schedule: Q04DX004 (sc), vehicle: Klucel (hydroxypropylcellulose) (HPC)) is reported as 51 % of control and the T/C (dose: 80.0 mg/kg/injection, schedule: Q04DX004 (sc), vehicle: Klucel (hydroxypropylcellulose) (HPC)) is reported as 78 % of control. For the same molecule, the T/C (dose: 160.0 mg/kg/injection, schedule: Q04DX004 (sc), vehicle: Klucel (hydroxypropylcellulose) (HPC)) was 62 % of control.
